The record followed here is US8796245B2 (TetraPhase Pharmaceuticals, Inc., priority 2008, dated 2014).

Assay type in all cases: cell-based
In experiment [1] the test system is E. faecalis ATCC 29212 (EF103). Kind of experiment: Minimum inhibitory concentration assay, EF103. The conditions noted are these: Enterococcus faecalis, ATCC29212, read-out: MICs EF103. The method, then: (§1) Frozen bacterial strains were thawed and subcultured onto Mueller Hinton Broth (MHB) or other appropriate media (Streptococcus requires blood and Haemophilus requires hemin and NAD). Following incubation overnight, the strains were subcultured onto Mueller Hinton Agar and again incubated overnight. […] Isolated colonies were selected to prepare a starting inoculum equivalent to a 0.5 McFarland standard. The starting inoculum was diluted 1:125 using MHB for further use. Test compounds were prepared by dilution in sterile water to a final concentration of 5.128 mg/mL. Antibiotics (stored frozen, thawed and used within 3 hours of thawing) and compounds were further diluted to the desired working concentrations.
(§2) The assays were run as follows. Fifty μL of MHB was added to wells 2-12 of a 96-well plate. One hundred […] of appropriately diluted antibiotics was added to well 1. Fifty μL of antibiotics was removed from well 1 and added to well 2 and the contents of well 2 mixed by pipetting up and down five times. Fifty μL of the mixture in well 2 was removed and added to well 3 and mixed as above. Serial dilutions were continued in the same manner through well 12. Fifty μL was removed from well 12 so that all contained 50 μL. Fifty μL of the working inoculum was then added to all test wells. A growth control well was prepared by adding 50 μL of working inoculum and 50 μL of MHB to an empty well. The plates were then incubated at 37° C. overnight, removed from the incubator and each well was read on a plate reading mirror. The lowest concentration (MIC) of test compound that inhibited the growth of the bacteria was recorded.

Experiment [2] deals with S. aureus ATCC 13709 (SA100, MSSA, Smith strain). Kind of experiment: Minimum inhibitory concentration assay, SA100. The note with it: Staphylococcus aureus; S. aureus ATCC 13709, MSSA Smith strain; read-out: MICs SA100. The method, then:
as §1, §2

In experiment [3] the test system is K. pneumoniae KP153 (tet resistant: tetA efflux). As to the kind of experiment: microbe, parasite or virus in culture. The conditions noted are these: Klebsiella pneumoniae, read-out: MICs KP153. The method, then:
as §1, §2

The subject of experiment [4] is S. aureus SA158 (tet resistant: tetK efflux). As to the kind of experiment: microbe, parasite or virus in culture. The conditions noted are these: Staphylococcus aureus, read-out: MICs SA158. The method, then: as §1, §2
Experiment [5] has as its system E. coli EC155 (tet resistant: tetA efflux). Kind of experiment: microbe, parasite or virus in culture. The method, then: as §1, §2
Experiment [6] has as its system E. cloacae ATCC 13047 (EC108). Kind of experiment: Minimum inhibitory concentration assay, EC108. The method, then: as §1, §2
Experiment [7] relates to S. pneumoniae ATCC 49619 (SP106). As to the kind of experiment: Minimum inhibitory concentration assay, SP106. The note with it: Streptococcus pneumoniae, ATCC49619; S. pneumoniae ATCC 49619, wt; read-out: MICs SP106. The method, then: as §1, §2
Experiment [8] concerns A. baumanii ATCC 19606 (AB110). As to the kind of experiment: Minimum inhibitory concentration assay, AB110. The method, then: as §1, §2
Experiment [9] has as its system S. aureus ATCC 29213 (SA101, MSSA). Kind of experiment: Minimum inhibitory concentration assay, SA101. The conditions noted are these: for MIC: Staphylococcus aureus, S. aureus ATCC 29213, MSSA control, read-out: MICs SA101; for MIC SA101 29213: control compounds, numeric MIC, 0.016 means 0.016 or lower. The method, then: as §1, §2
For experiment [10], the system named is P. aeruginosa ATCC 27853 (PA111). Kind of experiment: Minimum inhibitory concentration assay, PA111. The method, then: as §1, §2
Experiment [11] deals with E. coli ATCC 25922 (EC107). As to the kind of experiment: Minimum inhibitory concentration assay, EC107. The note with it: Escherichia coli, ATCC25922; E. coli ATCC 25922, wt; read-out: MICs EC107. The method, then: as §1, §2
In experiment [12] the test system is K. pneumoniae ATCC 13883 (KP109). As to the kind of experiment: Minimum inhibitory concentration assay, KP109. The note with it: Klebsiella pneumoniae, ATCC13883; K. pneumoniae ATCC 13883, wt; read-out: MICs KP109. The method, then: as §1, §2
The test system of experiment [13] is S. aureus SA161 (tet resistant: tet(M) ribosomal protection). As to the kind of experiment: Minimum inhibitory concentration assay, SA161. The conditions noted are these: Staphylococcus aureus, read-out: MICs SA161. The method, then:
as §1, §2

Experiment [14] has as its system E. faecalis EF159 (tet resistant: tetM). Kind of experiment: Minimum inhibitory concentration assay, EF159. The note with it: Enterococcus faecalis, read-out: MICs EF159. The method, then: as §1, §2
Experiment [15] deals with S. pneumoniae SP160 (tet resistant: tet M). As to the kind of experiment: Minimum inhibitory concentration assay, SP160. The note with it: Streptococcus pneumoniae, read-out: MICs SP160. The method, then:
as §1, §2

Setting [16] is: Escherichia coli, E. coli tet resistant: tetA (efflux), read-out: MICs EC155.
Setting [17] is: Enterobacter cloacae, ATCC13047, E. cloacae ATCC 13047, wt, read-out: MICs EC108.
Setting [18] is: Acinetobacter baumannii, ATCC19606, A. baumanii ATCC 19606, wt, read-out: MICs AB110.
The mark [19] stands for this setting: Pseudomonas aeruginosa, ATCC27853, P. aeruginosa ATCC 27853, wt, read-out: MICs PA111.
The mark [20] stands for this setting: EC108, control compounds, numeric.
The mark [21] stands for this setting: AB110, control compounds, numeric.
Setting [22] is: PA111, control compounds, numeric.
Setting [23] is: EC155 tetA, control compounds, numeric.

Values after ≈ are worked out from the molar mass of the structure shown. Read-outs that look alike come from different tables or passages of the source.

`CC(C)NCC(=O)Nc1cc(F)c2c(c1O)C(=O)C1=C(O)[C@]3(O)C(=O)C(C(N)=O)=C(O)[C@@H](N(C)C)[C@@H]3C[C@@H]1C2` [Compound 16]: the MIC was found to be 0.0625 µg/mL (≈ 0.114 µM) in [1]; 0.25 µg/mL (≈ 0.457 µM) in [2]; 4 µg/mL (≈ 7.32 µM) in [3]; 0.5 µg/mL (≈ 0.915 µM) in [4]; 8 µg/mL (≈ 14.6 µM) in experiment [5] (setting [16]); 1 µg/mL (≈ 1.83 µM) in [6] (setting [17]). In addition, the MIC was at most 0.0156 µg/mL in [7]; 1 µg/mL (≈ 1.83 µM) in [8] (setting [18]); 0.125 µg/mL (≈ 0.229 µM) in experiment [9]; 16 µg/mL (≈ 29.3 µM) in experiment [10] (setting [19]); 0.5 µg/mL (≈ 0.915 µM) in experiment [11]; 1 µg/mL (≈ 1.83 µM) in experiment [12]. Besides, the MIC in experiment [13] is 0.25 µg/mL (≈ 0.457 µM); in experiment [14] it was 0.0625 µg/mL (≈ 0.114 µM); in experiment [15], at most 0.0156 µg/mL.

Regarding `CN(C)[C@@H]1C(O)=C(C(N)=O)C(=O)[C@@]2(O)C(O)=C3C(=O)c4c(O)c(NC(=O)CNC5CC5)cc(F)c4C[C@H]3C[C@@H]12` [Compound 17], the MIC in experiment [1] came to 0.25 µg/mL (≈ 0.459 µM); in [2], 0.5 µg/mL (≈ 0.918 µM); in experiment [3] it was 32 µg/mL (≈ 58.8 µM); in experiment [4] it was 2 µg/mL (≈ 3.67 µM); in experiment [5] (setting [16]) it was 32 µg/mL (≈ 58.8 µM); in experiment [6] (setting [17]), 8 µg/mL (≈ 14.7 µM). In addition, the MIC in experiment [7] stood at 0.0625 µg/mL (≈ 0.115 µM); in experiment [8] (setting [18]), 0.5 µg/mL (≈ 0.918 µM); in experiment [9] it was 0.25 µg/mL (≈ 0.459 µM); in experiment [10] (setting [19]) it was 32 µg/mL (≈ 58.8 µM); in experiment [11], 2 µg/mL (≈ 3.67 µM); in experiment [12], 4 µg/mL (≈ 7.35 µM). Also, the MIC in experiment [13] was found to be 1 µg/mL (≈ 1.84 µM); in experiment [14], 1 µg/mL (≈ 1.84 µM); in experiment [15], 0.0625 µg/mL (≈ 0.115 µM).

In the case of `CN(C)[C@@H]1C(O)=C(C(N)=O)C(=O)[C@@]2(O)C(O)=C3C(=O)c4c(O)c(NC(=O)CNC5CCCC5)cc(F)c4C[C@H]3C[C@@H]12` [Compound 18], the MIC in [1] is at most 0.0156 µg/mL; in experiment [2], at most 0.0156 µg/mL; in experiment [3], 4 µg/mL (≈ 6.99 µM); in experiment [4], 0.125 µg/mL (≈ 0.218 µM); in experiment [5] (setting [16]) it was 4 µg/mL (≈ 6.99 µM); in [6] (setting [17]) it was 0.5 µg/mL (≈ 0.873 µM). Besides, the MIC in [7] was at most 0.0156 µg/mL; in experiment [8] (setting [18]), 0.25 µg/mL (≈ 0.437 µM); in [9], 0.0625 µg/mL (≈ 0.109 µM); in [10] (setting [19]), 16 µg/mL (≈ 27.9 µM); in experiment [11], 0.125 µg/mL (≈ 0.218 µM); in [12], 0.5 µg/mL (≈ 0.873 µM). For the same molecule, the MIC in experiment [13] was 0.0625 µg/mL (≈ 0.109 µM); in [14] it was 0.0313 µg/mL (≈ 0.0547 µM); in experiment [15] it was at most 0.0156 µg/mL.

As for `CN(C)c1ccc(O)c2c1C[C@H]1C[C@H]3[C@H](N(C)C)C(O)=C(C(N)=O)C(=O)[C@@]3(O)C(O)=C1C2=O` [Minocycline], the MIC in experiment [6] (setting [20]) came out at 2 µg/mL (≈ 4.37 µM); in experiment [8] (setting [21]) it was 0.06 µg/mL (≈ 0.131 µM); in experiment [10] (setting [22]) it was 16 µg/mL (≈ 35 µM). Moreover, the MIC SA101 29213 in experiment [9] is 0.06 µg/mL (≈ 0.131 µM).

Consider `CN(C)[C@@H]1C(O)=C(C(N)=O)C(=O)[C@@]2(O)C(O)=C3C(=O)c4c(O)cccc4C[C@H]3C[C@@H]12` [Sancycline], for which the MIC in experiment [5] (setting [23]) was 32 µg/mL (≈ 77.2 µM); in experiment [6] (setting [20]), 8 µg/mL (≈ 19.3 µM); in experiment [8] (setting [21]), 0.25 µg/mL (≈ 0.603 µM); in [10] (setting [22]) it was above 32 µg/mL. Also, in [9], the MIC SA101 29213 came to 0.5 µg/mL (≈ 1.21 µM).

On to `CN(C)c1cc(NC(=O)CNC(C)(C)C)c(O)c2c1C[C@H]1C[C@H]3[C@H](N(C)C)C(O)=C(C(N)=O)C(=O)[C@@]3(O)C(O)=C1C2=O` [Tigecycline], for which the MIC in experiment [5] (setting [23]) stood at 0.5 µg/mL (≈ 0.854 µM); in experiment [6] (setting [20]), 0.25 µg/mL (≈ 0.427 µM); in experiment [8] (setting [21]) it was 0.25 µg/mL (≈ 0.427 µM); in experiment [10] (setting [22]), 8 µg/mL (≈ 13.7 µM). In experiment [9], this molecule displayed an MIC SA101 29213 of 0.06 µg/mL (≈ 0.102 µM).
